{
  "source": "patent US20250074869A1",
  "about": "“AMINO-COMBRETASTATIN DERIVATIVE AND USE THEREOF” (priority 2020, published 2025)",
  "key": {"[1]": {"assay": "Acute toxicity study in animals (oral LD50)", "settings": "mouse, in vivo, male ICR mice, intragastric administration, observed 14 days, hydrochloride salts", "excerpt": "(§1) Male ICR mice weighed 23±2 g, clean grade, were selected. The route of administration was intragastric (ig) administration, which is consistent with the intended oral route for clinical use.\n(§2) Mice were randomly divided into 8 groups by weight: the blank control group, Example 1 group, Example 5 group, Example 11 group, Example 12 group, Example 13 group, Example 14 group and control group. Among these, the control group received amino-combretastatin serinamide hydrochloride as the control (hereinafter referred to as control).\n(§3) Preparation of the compounds used in the example groups: The compounds obtained in Example 1, Example 3. Example 4. Example 5. Example 6. Example 7. Example 8. Example 9. Example 10. Example 11. Example 12, Example 13 and Example 14 were prepared into hydrochloride salts according to the method disclosed in Example 2.\n(§4) Pre-treatment: […] were deprived of food but not water for 12 h before the study. and randomized into groups of 10 by body weight. The treatment groups were intragastrically administered once at 0.25 mL/10 g body weight, and the water control group received an equivalent amount of distilled water through intragastric administration. The LD100 value (the amount for 100% death), LD0 (the amount for 0 death) and the corresponding range r value between the dose groups were calculated, and LD50 was determined.\n(§5) Study procedures: 160 mice were randomized into 8 groups of 20 mice by body weight. After deprivation of food but not water for 12 h before the study, each group was intragastrically given the compound once at 0.3 mL/10 g body weight. Since no death was observed after 12 h, the second dose was given. The control group received equivalent volumes of water. The daily dose of each group was calculated; the control group received equal volumes of water and was subjected to an acute toxicity study for observation and the body weight of the mice was recorded daily for 14 days."}, "[2]": {"test_system": "Male ICR mice", "assay": "Acute toxicity study in animals (oral LD50)", "settings": "mouse, in vivo", "excerpt": "as §1, §2, §3, §4, §5"}, "[3]": {"test_system": "human liver cancer cells Bel-7402", "assay": "Efficacy study in nude mouse with xenograft tumor, Bel-7402", "assay_type": "in vivo", "settings": "BALB/cA-nude mice, subcutaneous xenograft, 50 mg/kg intragastric once daily for 21 days, dosed as hydrochloride; for inhibition in vivo at 50 mg/kg: Mus musculus, Bel-7402, sc, 504 h, read-out: % tumor inhibition (D21) Bel-7402", "method": "(§6) BALB/cA-nude mice aged 6 to 7 weeks were purchased from Shanghai Slac Laboratory Animal Co., Ltd. The nude mice were subcutaneously grafted with human liver cancer cells Bel-7402, colon cancer cells HT-29, gastric cancer cells SGC-7901 or non-small cell lung cancer cells A549. After the tumor grew to 100 to 250 mm^3, the animals were randomized (d0). The tumor volumes and body weights were measured twice or thrice a week, and the data were recorded. Tumor volume (V) was calculated as follows:\n(§7) [formula] • wherein a and b represent length and width, respectively; T and C are the tumor volumes at the end of study; T0 and C0 are the tumor volumes at the start of study.\n(§8) All samples were diluted to the desired concentration with 50% PEG400 in distilled water. The regimen was once daily for 21 days at 50 mg/kg mouse body weight through intragastric administration, and 50 mg/kg for the control. The compounds obtained in Examples 1, 3, 4, 5, 6, 7, 8, 9, 10, 11, 12, 13 and 14 and the control were prepared into corresponding hydrochloride as the dosing compounds according to the method disclosed in Example 2 to investigate their efficacy on human liver cancer cell Bel-7402, colon cancer cell HT-29, gastric cancer cell SGC-7901 or non-small cell lung cancer cell A549 xenograft tumors in nude mice and to compare the compounds with the control (prepared as in Example 16)."}, "[4]": {"test_system": "colon cancer cells HT-29", "assay": "Efficacy study in nude mouse with xenograft tumor, HT-29", "assay_type": "in vivo, human", "settings": "BALB/cA-nude mice, subcutaneous xenograft, 50 mg/kg intragastric once daily for 21 days, dosed as hydrochloride; for inhibition in vivo at 50 mg/kg: Mus musculus, HT-29, sc, 504 h, read-out: % tumor inhibition (D21) HT-29", "method": "as §6, §7, §8"}, "[5]": {"test_system": "gastric cancer cells SGC-7901", "assay": "Efficacy study in nude mouse with xenograft tumor, SGC-7901", "assay_type": "in vivo, human", "settings": "BALB/cA-nude mice, subcutaneous xenograft, 50 mg/kg intragastric once daily for 21 days, dosed as hydrochloride; for inhibition in vivo at 50 mg/kg: Mus musculus, SGC-7901, sc, 504 h, read-out: % tumor inhibition (D21) SGC-7901", "method": "as §6, §7, §8"}, "[6]": {"test_system": "non-small cell lung cancer cells A549", "assay": "Efficacy study in nude mouse with xenograft tumor, A549", "assay_type": "in vivo, human", "settings": "BALB/cA-nude mice, subcutaneous xenograft, 50 mg/kg intragastric once daily for 21 days, dosed as hydrochloride; for inhibition in vivo at 50 mg/kg: Mus musculus, A549, sc, 504 h, read-out: % tumor inhibition (D21) A549", "method": "as §6, §7, §8"}},
  "note": "Structures can show the parent of a compound that is named as a salt.",
  "data": [
    {"compound": "COc1ccc(/C=C\\c2cc(OC)c(OC)c(OC)c2)cc1NC(=O)CCN(CCO)CCO", "note": "[Hydrochloride of Example 12]", "values": [
      {"measurement": "LD50", "setting": "[1]", "result": 1100, "unit": "mg/kg"}
    ]},
    {"compound": "CCCCN(CCCC)CCC(=O)Nc1cc(/C=C\\c2cc(OC)c(OC)c(OC)c2)ccc1OC", "note": "[Hydrochloride of Example 6]", "values": [
      {"measurement": "LD50", "setting": "[1]", "result": 900, "unit": "mg/kg"}
    ]},
    {"compound": "CCOc1ccc(/C=C\\c2cc(OC)c(OC)c(OC)c2)cc1NC(=O)CCNCC(OC)OC", "note": "[Hydrochloride of Example 14]", "values": [
      {"measurement": "LD50 at 14 days", "setting": "[1]", "result": 1000, "unit": "mg/kg"}
    ]},
    {"compound": "CCCN(CCC)CCC(=O)Nc1cc(/C=C\\c2cc(OC)c(OC)c(OC)c2)ccc1OC", "note": "[Hydrochloride of Example 3]", "values": [
      {"measurement": "LD50 at 14 days", "setting": "[1]", "result": 1000, "unit": "mg/kg"}
    ]},
    {"compound": "CCOc1ccc(/C=C\\c2cc(OC)c(OC)c(OC)c2)cc1NC(=O)CCN(CCO)CCO", "note": "[Hydrochloride of Example 11]", "values": [
      {"measurement": "LD50 at 14 days", "setting": "[1]", "result": 1100, "unit": "mg/kg"}
    ]},
    {"compound": "CCOc1ccc(/C=C\\c2cc(OC)c(OC)c(OC)c2)cc1NC(=O)CCN(CC)CC", "note": "[Hydrochloride of Example 4]", "values": [
      {"measurement": "LD50 at 14 days", "setting": "[1]", "result": 1100, "unit": "mg/kg"}
    ]},
    {"compound": "CCCCN(CCCC)CCC(=O)Nc1cc(/C=C\\c2cc(OC)c(OC)c(OC)c2)ccc1OCC", "note": "[Hydrochloride of Example 5]", "values": [
      {"measurement": "LD50 at 14 days", "setting": "[1]", "result": 1200, "unit": "mg/kg"}
    ]},
    {"compound": "CCCN(CCC)CCC(=O)Nc1cc(/C=C\\c2cc(OC)c(OC)c(OC)c2)ccc1OCC", "note": "[Hydrochloride of Example 1, (Z)-1-(3,4,5-trimethoxyphenyl)-2-((3-(bis(2-n-propyl)amino)propionamide)-4-ethoxyphenyl)ethylene hydrochloride]", "values": [
      {"measurement": "LD50 at 14 days", "setting": "[1]", "result": 1200, "unit": "mg/kg"}
    ]},
    {"compound": "CCOc1ccc(/C=C\\c2cc(OC)c(OC)c(OC)c2)cc1NC(=O)CCNCC(F)F", "note": "[Hydrochloride of Example 13]", "values": [
      {"measurement": "LD50", "setting": "[1]", "result": 1000, "unit": "mg/kg"}
    ]},
    {"compound": "CCCCN(CCCC)CCC(=O)Nc1cc(/C=C\\c2cc(OC)c(OC)c(OC)c2)ccc1OCC(F)(F)F", "note": "[Hydrochloride of Example 9]", "values": [
      {"measurement": "LD50 at 14 days", "setting": "[1]", "result": 1000, "unit": "mg/kg"}
    ]},
    {"compound": "CCCN(CCC)CCC(=O)Nc1cc(/C=C\\c2cc(OC)c(OC)c(OC)c2)ccc1OC(F)F", "note": "[Hydrochloride of Example 8]", "values": [
      {"measurement": "LD50 at 14 days", "setting": "[1]", "result": 1100, "unit": "mg/kg"}
    ]},
    {"compound": "amino-combretastatin serinamide hydrochloride [Control, reference compound]", "values": [
      {"measurement": "LD50", "setting": "[2]", "result": 200, "unit": "mg/kg"},
      {"measurement": "% tumor inhibition (D21) Bel-7402", "setting": "[3]", "result": 39, "unit": "%"},
      {"measurement": "% tumor inhibition (D21) HT-29", "setting": "[4]", "result": 42, "unit": "%"},
      {"measurement": "% tumor inhibition (D21) SGC-7901", "setting": "[5]", "result": 34, "unit": "%"},
      {"measurement": "% tumor inhibition (D21) A549", "setting": "[6]", "result": 30, "unit": "%"}
    ]},
    {"compound": "CCOc1ccc(/C=C\\c2cc(OC)c(OC)c(OC)c2)cc1NC(=O)CCN(CC)CC", "note": "[Example 4, (Z)-1-(3,4,5-trimethoxyphenyl)-2-((3-(bis(2-ethyl)amino)propionamide)-4-ethoxyphenyl)ethylene]", "values": [
      {"measurement": "inhibition in vivo at 50 mg/kg", "setting": "[3]", "result": 90, "unit": "%"},
      {"measurement": "inhibition in vivo at 50 mg/kg", "setting": "[4]", "result": 91, "unit": "%"},
      {"measurement": "inhibition in vivo at 50 mg/kg", "setting": "[5]", "result": 76, "unit": "%"},
      {"measurement": "inhibition in vivo at 50 mg/kg", "setting": "[6]", "result": 67, "unit": "%"}
    ]},
    {"compound": "CCCN(CCC)CCC(=O)Nc1cc(/C=C\\c2cc(OC)c(OC)c(OC)c2)ccc1OC", "note": "[Example 3, (Z)-1-(3,4,5-trimethoxyphenyl)-2-((3-(bis(2-n-propyl)amino)propionamide)-4-methoxyphenyl)ethylene]", "values": [
      {"measurement": "inhibition in vivo at 50 mg/kg", "setting": "[3]", "result": 89, "unit": "%"},
      {"measurement": "inhibition in vivo at 50 mg/kg", "setting": "[4]", "result": 88, "unit": "%"},
      {"measurement": "inhibition in vivo at 50 mg/kg", "setting": "[5]", "result": 78, "unit": "%"},
      {"measurement": "inhibition in vivo at 50 mg/kg", "setting": "[6]", "result": 65, "unit": "%"}
    ]},
    {"compound": "CCCCN(CCCC)CCC(=O)Nc1cc(/C=C\\c2cc(OC)c(OC)c(OC)c2)ccc1OCC", "note": "[Example 5, (Z)-1-(3,4,5-trimethoxyphenyl)-2-((3-(bis(2-n-butyl)amino)propionamide)-4-ethoxyphenyl)ethylene]", "values": [
      {"measurement": "inhibition in vivo at 50 mg/kg", "setting": "[3]", "result": 88, "unit": "%"},
      {"measurement": "inhibition in vivo at 50 mg/kg", "setting": "[4]", "result": 82, "unit": "%"},
      {"measurement": "inhibition in vivo at 50 mg/kg", "setting": "[5]", "result": 80, "unit": "%"},
      {"measurement": "inhibition in vivo at 50 mg/kg", "setting": "[6]", "result": 63, "unit": "%"}
    ]},
    {"compound": "CCCN(CCC)CCC(=O)Nc1cc(/C=C\\c2cc(OC)c(OC)c(OC)c2)ccc1OCC(F)(F)F", "note": "[Hydrochloride of Example 7]", "values": [
      {"measurement": "LD50 at 14 days", "setting": "[1]", "result": 1200, "unit": "mg/kg"}
    ]}
  ]
}
